From patent publication US20110173718A1, “HERBICIDE TOLERANT PLANTS” (SYNGENTA CROP PROTECTION, INC., priority 2008, published 2011)
“And” between values parts separate entries of the source, which are not always exact repeats. Equal values may be shown once.

Columns and labels:
Format in all cases: in vivo
[1] = system: Chlamydomonas HST T0 tobacco lines; test: Glasshouse spray test, Chlamydomonas HST transgenic tobacco; design: herbicidal damage score: scale not given here; conditions: Chlamydomonas HST T0 tobacco events (one value per event), 15 g/ha of mesotrione, 21 DAT
Description: In just the same way the Chlamydomonas HST gene sequence (AM285678) is codon-optimised for tobacco and cloned behind the double Cauliflower mosaic virus 35S promoter and Tobacco mosaic virus enhancer sequences and in front of a nos gene terminator, cloned into a binary vector and transformed into tobacco to produce a population of T0 plants.

[2] = system: Tobacco (var Samsun) plantlets in agar; test: HST + HPPD herbicide effects on tobacco seedlings in agar; conditions: mesotrione 0.004 ppm, 0.75% v/v DMSO, no haloxydine, agar, 7 DAT
Procedure: Tobacco (var Samsun) plantlets germinated aseptically in agar made up in 1/3 strength Murashige and Skoog salts medium along with various doses of herbicide. Bleaching damage to emerging plantlets is assessed 7 DAT. The plantlets are kept covered under clear perspex and grown at 18° C. (night) and 24° C. (day) under a 16 h day (˜500-900 umol/m^2), 8 h darkness regime. Herbicide affected plantlets are bleached white and grow less. Synergistic/antagonistic responses are calculated using the Colby formula (Colby, S. R. (Calculating synergistic and antagonistic responses of herbicide Combinations”, Weeds, 15, p. 20-22, 1967).

weeds = test: Glasshouse weed control by HST/HPPD (mesotrione) mixtures, pre-emergence; conditions: 1 g/ha, N = 3
Procedure: Weed seeds are planted out in trays containing suitable soil (for example 50% peat, 50% John Innes soil no 3) and grown in the glass house conditions under 24-27° C. day; 18-21° C. night and approximately a 14 h (or longer in UK summer) photoperiod. Humidity is ˜65% and light levels up to 2000 μmol/m^2 at bench level. Trays are sprayed with test chemicals dissolved in water with 0.2-0.25% X-77 surfactant and sprayed from a boom on a suitable track sprayer moving at about 2 mph in a suitable track sprayer (for example a DeVries spray chamber with the nozzle about 2 inches from the plant tops). Spray volume is suitably 500-1000 l/ha. Sprays are carried out both pre-emergence and over small plants at about 7-12 d post-emergence
Plants are assessed 14 DAT and herbicidal damage is scored on a scale from 0 to 100%. The HST inhibitor compound 2.30 (designated compound A in table 16 and 17), haloxydine (compound 1.1) and compound 2.13 (designated compound AE in tables 16 and 17) are sprayed at rates between 0 and 500 g/ha.

SMILES: CS(=O)(=O)c1ccc(C(=O)C2C(=O)CCCC2=O)c([N+](=O)[O-])c1 [Mesotrione, mesotrione, reference compound]
- herbicidal damage score [1]: 70 and 55 and 85 and 65 and 80 and 75 and 60 and 100
- % Injury (bleaching), mesotrione by itself [2]: 35%
- % Damage at 14 DAA, mesotrione alone (weeds; ALOMY): 0%
- % Damage at 14 DAA, mesotrione alone (weeds; AMARE): 2%
- % Damage at 14 DAA, mesotrione alone (weeds; ECHCG): 0%
- % Damage at 14 DAA, mesotrione alone (weeds; IPOHE): 0%
- % Damage at 14 DAA, mesotrione alone (weeds; SETFA): 0%
- % Damage at 14 DAA, mesotrione alone (weeds; SOLNI): 17%
